Tests used:
[1] = Release kinetics of local anesthetic from hyaluronic acid gel by dialysis, UV-visible spectrophotometry; assay type: physicochemical; details: HA 3×10^6 Da, X=0.12, 20 mg/g; for mass percentage of local anesthetic in the hyaluronic acid gel: initial 3 mg/g, 37° C., physiological saline
Description: The release kinetics were, however, studied at 37° C. in physiological saline medium. Monitoring by UV-visible spectrophotometry is performed to assay the local anesthetic present in the gel.

[2] = cited from earlier work

Cc1cccc(C)c1NC(=O)C1CCCCN1C (stereo not drawn) [Mepivacaine, mepivacaine]
release kinetics from the hyaluronic acid gel (FIG. 1), lidocaine versus mepivacaine ([1]; 3 mg/g, dialysis at 37° C. in physiological saline): comparable
mass percentage of local anesthetic in the hyaluronic acid gel ([1]; dialysis time 0 h): 0.290 mass %
mass percentage of local anesthetic in the hyaluronic acid gel ([1]; dialysis time 1.5 h): 0.133 mass %
mass percentage of local anesthetic in the hyaluronic acid gel ([1]; dialysis time 5 h): 0.100 mass %
mass percentage of local anesthetic in the hyaluronic acid gel ([1]; dialysis time 7 h): 0.098 mass %
mass percentage of local anesthetic in the hyaluronic acid gel ([1]; dialysis time 23 h): 0.086 mass %
mass percentage of local anesthetic in the hyaluronic acid gel ([1]; dialysis time 48 h): 0.077 mass %
mass percentage of local anesthetic in the hyaluronic acid gel ([1]; dialysis time 72 h): 0.075 mass %
pKa [2]: 7.7
